Structures can show the parent of a compound that is named as a salt. Where two headings read alike, the source gives them in different places.
Experiments:
[1] = system: H3122 cells; experiment: Cytotoxicity in non-small cell lung cancer cell line H3122 (SRB); type: cell-based, human
Method: Particularly, 4,000 H3122 cells containing ALK enzyme were distributed in each well of a 96 well plate together with 100 μl of DMEM (Dulbecco's Modified Eagle's Medium). One day later, the compound of the present invention was added to each well at different concentrations of […]. DMSO (dimethylsulfoxide) was added to the well that was not loaded with the compound by the same amount as the compound. Three days after the addition of the compound, DMEM was eliminated. 10% TCA (trichloroacetic acid) was added to fix the cells. The wells were washed with running water three times and the live cells were stained with SRB solution (1 sulphorodamine B). Then, OD was measured to calculate the population of the live cells.

[2] = system: H2228 cells; experiment: cells; conditions: Homo sapiens, NCI-H2228, 72 h
[3] = system: Ba/F3 EML4-ALK WT cells; experiment: cells; type: cell-based, rodent; conditions: read-out: Ba/F3 EML-ALK WT (IC50 μM)
[4] = Homo sapiens, NCI-H3122, 72 h, H3122 cells, three days, SRB
[5] = read-out: Cytotoxicity H2228 (GI50 μM), H2228 cells, three days, SRB

Row | Structure (SMILES) | GI50 [1, 4] [µM] | GI50 [2, 5] [µM] | further results
1 | COc1ccc(CCNC(C)C)cc1Nc1ncc(Cl)c(Nc2ccccc2S(=O)(=O)C(C)C)n1 [Example 15, 5-chloro-N2-(5-(2-(isopropylamino)ethyl)-2-methoxyphenyl)-N4-(2-(isopropylsulfonyl)phenyl)pyrimidine-2,4-diamine] | 1.1 | 0.78 | –
2 | CCNC(=O)NCCc1ccc(OC)c(Nc2ncc(Cl)c(Nc3ccccc3S(=O)(=O)C(C)C)n2)c1 [Example 16, 1-(3-(5-chloro-4-(2-(isopropylsulfonyl)phenylamino)pyrimidine-2-ylamino)-4-methoxyphenethyl)-3-ethylurea] | 0.41 | 0.52 | –
3 | COc1ccc(CCNC(=O)NC2CCCCC2)cc1Nc1ncc(Cl)c(Nc2ccccc2S(=O)(=O)C(C)C)n1 [Example 17, 1-(3-(5-chloro-4-(2-(isopropylsulfonyl)phenylamino)pyrimidine-2-ylamino)-4-methoxyphenethyl)-3-cyclohexylurea] | 0.88 | 2.3 | –
4 | COc1ccc(CCNC(=O)Nc2ccccc2)cc1Nc1ncc(Cl)c(Nc2ccccc2S(=O)(=O)C(C)C)n1 [Example 18, 1-(3-(5-chloro-4-(2-(isopropylsulfonyl)phenylamino)pyrimidine-2-ylamino)-4-methoxyphenethyl)-3-phenylurea] | 3.6 | 4.9 | –
5 | CNC(=S)NCCc1ccc(OC)c(Nc2ncc(Cl)c(Nc3ccccc3S(=O)(=O)C(C)C)n2)c1 [Example 19, 1-(3-(5-chloro-4-(2-(isopropylsulfonyl)phenylamino)pyrimidine-2-ylamino)-4-methoxyphenethyl)-3-methylthiourea] | 1.1 | 10 | –
6 | COc1ccc(CCNC(=S)NCc2ccccc2)cc1Nc1ncc(Cl)c(Nc2ccccc2S(=O)(=O)C(C)C)n1 [Example 20, 1-benzyl-3-(3-(5-chloro-4-(2-(isopropylsulfonyl)phenylamino)pyrimidine-2-ylamino)-4-methoxyphenethyl)thiourea] | 0.31 | 0.42 | –
7 | COc1ccc(CCN2CCCCC2)cc1Nc1ncc(Cl)c(Nc2ccccc2S(=O)(=O)C(C)C)n1 [Example 21, 5-chloro-N4-(2-(isopropylsulfonyl)phenyl)-N2-(2-methoxy-5-(2-(piperidine-1-yl)ethyl)phenyl)pyrimidine-2,4-diamine] | – | – | GI50 [1]: 0.06 µM; GI50 ([1]; Homo sapiens, NCI-H3122, 72 h): ≤ 0.1 µM; GI50 ([2]; read-out: Cytotoxicity H2228 (GI50 μM)): 0.08 µM
8 | COc1ccc(CCN2CCOCC2)cc1Nc1ncc(Cl)c(Nc2ccccc2S(=O)(=O)C(C)C)n1 [Example 22, 5-chloro-N4-(2-(isopropylsulfonyl)phenyl)-N2-(2-methoxy-5-(2-morpholinoethyl)phenyl)pyrimidine-2,4-diamine] | 0.27 | 0.46 | –
9 | CCNC(=S)NCCc1ccc(OC)c(Nc2ncc(Cl)c(Nc3ccccc3S(=O)(=O)C(C)C)n2)c1 [Example 23, 1-(3-(5-chloro-4-(2-(isopropylsulfonyl)phenylamino)pyrimidine-2-ylamino)-4-methoxyphenethyl)-3-ethylthiourea] | 1.4 | 2.5 | –
10 | COc1ccc(CCNc2ncccn2)cc1Nc1ncc(Cl)c(Nc2ccccc2S(=O)(=O)C(C)C)n1 [Example 25, 5-chloro-N4-(2-(isopropylsulfonyl)phenyl)-N2-(2-methoxy-5-(2-(pyrimidine-2-ylamino)ethyl)phenyl)pyrimidine-2,4-diamine] | 1.3 | 1.5 | –
11 | COC(=O)CNCCc1ccc(OC)c(Nc2ncc(Cl)c(Nc3ccccc3S(=O)(=O)C(C)C)n2)c1 [Example 26, methyl 2-(3-(5-chloro-4-(2-(isopropylsulfonyl)phenylamino)pyrimidine-2-ylamino)-4-methoxyphenethylamino)acetate] | 0.14 | 0.42 | –
12 | COc1ccc(CCNCC(=O)O)cc1Nc1ncc(Cl)c(Nc2ccccc2S(=O)(=O)C(C)C)n1 [Example 27, 2-(3-(5-chloro-4-(2-(isopropylsulfonyl)phenylamino)pyrimidine-2-ylamino)-4-methoxyphenethylamino)acetic acid] | 0.42 | 0.51 | –
13 | COc1ccc(CNC(=O)C(F)(F)F)cc1Nc1ncc(Cl)c(Nc2ccccc2S(=O)(=O)C(C)C)n1 [Example 28, N-(3-((5-chloro-4-((2-(isopropylsulfonyl)phenyl)amino)pyrimidine-2-yl)amino)-4-methoxybenzyl)-2,2,2-trifluoroacetamide] | 0.82 | 0.98 | –
14 | COc1ccc(CN)cc1Nc1ncc(Cl)c(Nc2ccccc2S(=O)(=O)C(C)C)n1 [Example 29, N2-(5-(aminomethyl)-2-methoxyphenyl)-5-chloro-N4-(2-(isopropylsulfonyl)phenyl)pyrimidine-2,4-diamine] | 0.1 | 0.14 | –
15 | COc1ccc(CCNC(=O)C(F)(F)F)cc1Nc1ncc(Cl)c(Nc2ccccc2S(=O)(=O)C(C)C)n1 [Example 30, N-(3-(5-chloro-4-(2-(isopropylsulfonyl)phenylamino)pyrimidine-2-ylamino)-4-methoxyphenethyl)-2,2,2-trifluoroacetamide] | 0.48 | 0.76 | –
16 | CC(C)Oc1ccc(CCN)cc1Nc1ncc(Cl)c(Nc2ccccc2S(=O)(=O)C(C)C)n1 [Example 31, N2-(5-(2-aminoethyl)-2-isopropoxyphenyl)-5-chloro-N4-(2-(isopropylsulfonyl)phenyl)pyrimidine-2,4-diamine] | 0.7 | 0.51 | –
17 | COc1ccc(CCN)cc1Nc1ncc(Cl)c(Nc2ccc(F)cc2S(=O)(=O)C(C)C)n1 [Example 32, N2-(5-(2-aminoethyl)-2-methoxyphenyl)-5-chloro-N4-(4-fluoro-2-(isopropylsulfonyl)phenyl)pyrimidine-2,4-diamine] | 0.71 | 0.64 | –
18 | COc1ccc(CCN)cc1Nc1ncc(Cl)c(Nc2cc(F)ccc2S(=O)(=O)C(C)C)n1 [Example 33, N2-(5-(2-aminoethyl)-2-methoxyphenyl)-5-chloro-N4-(5-fluoro-2-(isopropylsulfonyl)phenyl)pyrimidine-2,4-diaminehydrochloride] | – | 10 | GI50 ([1]; H3122 cells, three days, SRB): 10 µM
19 | COc1ccc(CCN)cc1Nc1ncc(Cl)c(Nc2c(F)cccc2S(=O)(=O)C(C)C)n1 [Example 34, N2-(5-(2-aminoethyl)-2-methoxyphenyl)-5-chloro-N4-(2-fluoro-6-(isopropylsulfonyl)phenyl)pyrimidine-2,4-diaminehydrochloride] | 2.2 | 2.3 | –
20 | COc1ccc(C(C)(C)CN)cc1Nc1ncc(Cl)c(Nc2ccccc2S(=O)(=O)C(C)C)n1 [Example 35, N2-(5-(1-amino-2-methylpropane-2-yl)-2-methoxyphenyl)-5-chloro-N4-(2-(isopropylsulfonyl)phenyl)pyrimidine-2,4-diamine] | 1.6 | 1.6 | –
21 | COc1ccc(C(C)(C)CN)cc1Nc1ncc(Cl)c(Nc2ccc(F)cc2S(=O)(=O)C(C)C)n1 [Example 36, N2-(5-(1-amino-2-methylpropane-2-yl)-2-methoxyphenyl)-5-chloro-N4-(4-fluoro-2-(isopropylsulfonyl)phenyl)pyrimidine-2,4-diamine] | – | 10 | GI50 ([1]; H3122 cells, three days, SRB): 10 µM
22 | COc1ccc(C(C)(C)CN)cc1Nc1ncc(Cl)c(Nc2cc(F)ccc2S(=O)(=O)C(C)C)n1 [Example 37, N2-(5-(1-amino-2-methylpropane-2-yl)-2-methoxyphenyl)-5-chloro-N4-(5-fluoro-2-(isopropylsulfonyl)phenyl)pyrimidine-2,4-diamine] | – | 10 | GI50 ([1]; H3122 cells, three days, SRB): 10 µM
23 | COc1ccc(C(C)(C)CN)cc1Nc1ncc(Cl)c(Nc2c(F)cccc2S(=O)(=O)C(C)C)n1 [Example 38, N2-(5-(1-amino-2-methylpropane-2-yl)-2-methoxyphenyl)-5-chloro-N4-(2-fluoro-6-(isopropylsulfonyl)phenyl)pyrimidine-2,4-diamine] | – | 10 | GI50 ([1]; H3122 cells, three days, SRB): 10 µM
24 | COc1cc(CC#N)c(C)cc1Nc1ncc(Cl)c(Nc2ccccc2S(=O)(=O)C(C)C)n1 [Example 53, 2-(4-((5-chloro-4-((2-(isopropylsulfonyl)phenyl)amino)pyrimidine-2-yl)amino)-5-methoxy-2-methylphenyl)acetonitrile] | 0.074 | – | IC50 ([3]; Ba/F3 EML4-ALK): ≤ 0.1 µM; IC50 [3]: 0.061 µM
25 | COc1cc(C(C)(C)C#N)c(C)cc1Nc1ncc(Cl)c(Nc2ccccc2S(=O)(=O)C(C)C)n1 [Example 54, 2-(4-((5-chloro-4-((2-(isopropylsulfonyl)phenyl)amino)pyrimidine-2-yl)amino)-5-methoxy-2-methylphenyl)-2-methylpropanenitrile] | 0.25 | – | IC50 ([3]; Ba/F3 EML4-ALK): 0.25 µM
26 | COc1cc(C(C)(C)NC=O)c(C)cc1Nc1ncc(Cl)c(Nc2ccccc2S(=O)(=O)C(C)C)n1 [Example 61, N-(2-(4-((5-chloro-4-((2-(isopropylsulfonyl)phenyl)amino)pyrimidine-2-yl)amino)-5-methoxy-2-methylphenyl)propane-2-yl)formamide] | 0.052 | – | IC50 ([3]; Ba/F3 EML4-ALK): 0.024 µM
27 | COc1cc(-c2ccccc2)c(CCN)cc1Nc1ncc(Cl)c(Nc2ccccc2S(=O)(=O)C(C)C)n1 [Example 67] | 0.23 | – | IC50 ([3]; Ba/F3 EML4-ALK): 0.11 µM
28 | COc1cc(CNC=O)c(C)cc1Nc1ncc(Cl)c(Nc2ccccc2S(=O)(=O)C(C)C)n1 [Example 71, N-(4-((5-chloro-4-((2-(isopropylsulfonyl)phenyl)amino)pyrimidine-2-yl)amino)-5-methoxy-2-methylbenzyl)formamide] | – | – | IC50 ([3]; Ba/F3 EML4-ALK): 0.015 µM

Source: US10100019B2
